# Measured values from patent publication US9895367B2, “Formulation comprising phenylaminopyrimidine derivative as active agent” (NATCO PHARMA LIMITED, priority 2011, dated 2018).
# Legend:
# rats = test: Toxicological study, maximum tolerated oral dose in rats; format: in vivo
# [1] = Solubility of NRC-AN-019 drug substance; format: physicochemical
# Excerpt: NRC-AN-019 is a pale yellow to light brown coloured crystalline to amorphous powder. Its molecular formula is C25H17F6N5O and its relative molecular mass is 517.44. […] The drug substance is soluble in dimethyl formamide and dimethyl sulfoxide.
# [2] = Bioavailability study in rats (oral, LCMS of blood); format: in vivo; conditions: wistar albino male rats, fasted overnight, average
# Excerpt: Four rats (wistar albino, male, weighing 120-180 grams) were divided into two sets of study (two rats in each set) and fasted overnight prior to dosing, but were permitted water ad libitum. The sample preparation and subsequent dilution was made as per protocol with a vehicle, followed by the administration of the sample through oral route. Blood samples were collected by puncturing retero-orbital sinus of the anaesthetized rats (with anesthetic ether) at definite intervals of 15, 30, 60, 120, 240, 360, 480 and 720 minutes post administration. The blood collection was done in prefilled heparin centrifugation tubes.
# The blood samples collected were subjected for the subsequent centrifugation and followed by analytical procedure with the use of LCMS technique. The areas under the blood drug concentration versus time curves are calculated by the trapezoidal rule. The analysis was done with respect to AUC (area under curve), Cmax (maximum concentration) and Tmax (time of maximum concentration).
# [3] = system: PC3M (Prostate Cancer) Cell lines; test: MTT assay on PC3M cell lines; format: cell-based; conditions: Homo sapiens, PC-3M, 0.312×10^5 cells/mL, 72 hours
# [4] = system: CAL-27 (Tongue squamous cell carcinoma) cell line; test: MTT assay on CAL-27 cell line; format: cell-based; conditions: Homo sapiens, CAL-27, 1.75×10^4 cells/mL, 72 hours
structure (smiles),measurement,setting,value
"Cc1ccc(NC(=O)c2cc(C(F)(F)F)cc(C(F)(F)F)c2)cc1Nc1nccc(-c2cccnc2)n1 [NRC-AN-019, (3,5-bis-trifluoromethyl)-N-[4-methyl-3-(4-pyridin-3-yl-pyrimidin-2-ylamino)-pheny-1]-benzamide]",maximum tolerated oral dose,rats,> 5000 mg/kg bodyweight
same,solubility in aqueous buffer of pH 1.2,[1]; aqueous buffer pH 1.2,very slightly soluble
same,solubility in dimethyl formamide,[1]; dimethyl formamide,soluble
same,solubility in dimethyl sulfoxide,[1]; dimethyl sulfoxide,soluble
same,solubility in neutral/alkaline aqueous buffers,[1]; neutral/alkaline aqueous buffers,insoluble
same,solubility in water,[1]; water,practically insoluble
same,Cmax,[2]; rat,35.2 ng/mL
same,Tmax,[2]; rat,8.7 h
same,AUC,[2]; trapezoidal rule,430.0 ng·h/mL
same,IC50,[3],4380 nM
same,IC50,[4],1440 nM
